Results from patent publication US10682345B2, “Muscarinic antagonists and combinations thereof for the treatment of airway disease in horses” (Boehringer Ingelheim Vetmedica GmbH, priority 2014, dated 2020).

Legend:
RAO horses [1] = test: Phase II: cross-over, blinded mouldy hay challenge study, 7 days treatment; format: in vivo, horse; settings: for EL values over time / ΔPL values over time: Days 4 and 8 compared to Day 1; for RL values over time: clenbuterol group and 800 μg LAMA 1 group
Description: LAMA 1 is investigated in a cross-over, blinded mouldy hay challenge study. 8 RAO horses are examined in the study, which is divided into an acclimation and a treatment phase. Placebo for LAMA 1 is administered once daily per inhalation via the Equine Inhaler device to all horses for 1 week in the acclimation period. LAMA 1 and clenbuterol are administered to the horses in a cross-over design in the treatment phase. The horses are challenged by exposure to mouldy hay throughout the acclimation and treatment phases. LAMA 1 is administered with the doses of 200 μg (2 actuations)/400 μg (4 actuations)/800 μg (8 actuations)/horse (ex-RESPIMAT®) once daily for 7 days per inhalation via the Equine Inhaler device. Nozzle A and a commercially available RESPIMAT® is used in the study. Clenbuterol is administered with a dose of 0.8 μg/kg per os, twice daily for 7 days. Lung function variables (change in transpulmonary pressure (ΔPL), lung resistance (RL) and lung elastance (EL)), breathing effort score, Borborygmi score, blood gas analysis are examined during the study.

[2] = Kallos-Pagel Model, effects vs. tiotropium; format: in vivo
RAO horses [3] = test: Phase I and IV: mouldy hay challenge, single inhaled administration, lung function for 24 h; format: in vivo, horse
Description: LAMA 1 is investigated in two RAO horses at different phases or periods as part of a mouldy hay challenge study. The horses are challenged every day by exposure to mouldy hay. LAMA 1 is administered via the Equine Inhaler device at different doses or formulations. Lung function parameters (change in transpulmonary pressure (ΔPL), lung resistance (RL) and lung elastance (EL)) are measured for 24 h. A single administration of 800 μg LAMA 1 (8 actuations in aqueous formulation) is performed per inhalation to two RAO horses (ID numbers: 312 and 91) in phase I. Two RAO horses are treated with LAMA 1 in phase IV (ID numbers: 40 and 91), which can be divided into three periods. 2000 μg LAMA 1 (20 actuations in aqueous formulation) is administered per inhalation in period 1. 2000 μg LAMA 1 ([…] in ethanolic formulation) is administered per inhalation in period 2. 2000 μg LAMA 1 (20 actuations in ethanolic formulation) is administered per inhalation in period 3.

Hm3 = Hm3 (Homo sapiens, UniProt P20309); test: Binding to Hm3 receptor (mean KD, dissociation half-life)
healthy horses = test: Phase III: ECG measurements for 48 h after single inhalation; format: in vivo, horse; settings: single 800 μg inhalation, aqueous formulation, two healthy horses
Description: A single administration of 800 μg LAMA 1 (8 actuations in aqueous formulation) is performed per inhalation to two healthy horses in phase III. Subsequently, ECG measurements are done for 48 h.

[4] = 800 μg group, Day 7 compared to Day 0
[5] = day 4, all LAMA 1 groups (200, 400, 800 μg)

Chain of Hm3 (P20309 whole entry): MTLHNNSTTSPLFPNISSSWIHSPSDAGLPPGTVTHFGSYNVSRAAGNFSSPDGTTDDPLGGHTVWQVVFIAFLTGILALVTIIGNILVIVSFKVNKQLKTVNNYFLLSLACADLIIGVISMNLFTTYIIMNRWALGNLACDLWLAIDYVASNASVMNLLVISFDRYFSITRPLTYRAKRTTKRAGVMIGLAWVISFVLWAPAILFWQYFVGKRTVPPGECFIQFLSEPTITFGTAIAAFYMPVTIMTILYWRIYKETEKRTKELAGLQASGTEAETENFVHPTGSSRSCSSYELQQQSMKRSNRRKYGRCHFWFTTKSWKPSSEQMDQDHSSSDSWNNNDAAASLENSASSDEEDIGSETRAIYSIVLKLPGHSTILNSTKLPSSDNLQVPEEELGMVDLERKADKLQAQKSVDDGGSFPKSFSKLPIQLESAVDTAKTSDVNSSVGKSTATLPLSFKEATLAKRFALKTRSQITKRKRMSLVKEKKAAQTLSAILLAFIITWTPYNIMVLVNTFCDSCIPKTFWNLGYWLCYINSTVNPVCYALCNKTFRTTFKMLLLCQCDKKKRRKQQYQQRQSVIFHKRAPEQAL

SMILES	pH in arterial blood (RAO horses [1]; [4])	paCO2 in arterial blood (RAO horses [1]; [4])	EL values over time (RAO horses [1])	ΔPL values over time (RAO horses [1])	Improvement in lung function after one week, compared with clenbuterol (RAO horses [1]; LAMA 1 once daily for one week, clenbuterol twice daily for one week)	RL values over time (RAO horses [1])	Change in EL 30 min after administration (RAO horses [1]; day 4, 200 and 400 μg LAMA 1)	Change in ΔPL 30 min after administration (RAO horses [1]; day 4, 200 and 400 μg LAMA 1)	EL 30 min after administration vs pre-treatment (RAO horses [1]; [5])	RL 30 min after administration vs pre-treatment (RAO horses [1]; [5])	ΔPL 30 min after administration vs pre-treatment (RAO horses [1]; [5])	Effects in the Kallos-Pagel Model: protection ([2]; acute and chronic) [h]	Effects in the Kallos-Pagel Model vs. tiotropium: lower efficacy (chronic) ([2]; chronic, vs. tiotropium) [fold]	Lung function variables at 24 h after single administration (RAO horses [3]; 24 h, compared with pre-treatment values)	Time until which lung function values continue to drop (RAO horses [3]; depending on lung function parameter, dose or formulation) [h]	Start of decrease in lung function variables (ΔPL, RL, EL) after administration (RAO horses [3]; single inhalation of 800 μg or 2000 μg, aqueous or ethanolic formulation) [min]	Kd (Hm3) [nM]	ECG: abnormal observation (healthy horses)	ECG: arrhythmias (healthy horses)	Breathing effort score (RAO horses [1]; study day 6, clenbuterol 0.8 μg/kg per os twice daily compared with 2 or 4 actuations of LAMA 1)
CC(C(=O)O[C@H]1CC2C3O[C@@H]3[C@H](C1)[N+]2(C)C)(c1ccccc1)c1ccccc1 (stereo partly drawn) [LAMA 1, (1α,2β,4β,5α,7β)-3-Oxa-9-azoniatricyclo [3.3.1.0^2.4] nonane, 9,9-dimethyl-7-(1-oxo-2,2-diphenylpropoxy)-bromide]	increases	reduces significantly	None of the treatments (LAMA 1 or clenbuterol) alters significantly	None of the treatments (LAMA 1 or clenbuterol) alters significantly	comparable to the significant improvement in lung function after the twice daily administration of clenbuterol	significantly reduced	statistically significant	statistically significant	decrease	decrease	decrease	24	10	below or reach the pre-treatment values	2 to 8	5	0.4	Only one observation is classified as either a first-degree heart block with aberrant intraventricular repolarization, or an artifact	Physiological arrhythmias are noted in both horses before and following the administration	
CC(C)(C)NCC(O)c1cc(Cl)c(N)c(Cl)c1 (centres unmarked) [clenbuterol, reference compound]			None of the treatments (LAMA 1 or clenbuterol) alters significantly	None of the treatments (LAMA 1 or clenbuterol) alters significantly		significantly reduced														significantly smaller breathing effort scores
